Experimental findings from PubChem BioAssay AID248 (DTP/NCI, 2004) are described below.

SMILES strings stand for the structures. Several values for one entry are separate records, joined by “and”; a condition that tells them apart may be missing. Equal values may be shown once. Toxic doses and inconclusive results are not listed. Square brackets hold non-standard residues; d marks the D form. Peptide text beside a SMILES is read from it. * marks the point of attachment. ξ: configuration not given here. Cbz = O=C(OCc1ccccc1)*; ξT = CC(O)C(N)C(=O)O

In the assay the test system is L1210 leukemia ip in BDF1 mice, survival T/C. Description: NCI In Vivo Anticancer Drug Screen. Data for tumor model L1210 Leukemia (intraperitoneal) in B6D2F1 (BDF1) mice. The conditions noted are these: endpoint: mean survival time, higher = longer survival. The method, boiled down:
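Survival endpoint. Drug-treated group vs vehicle group, expressed as T divided by C. Tumor passaged by transplantation.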

[1] abbreviates: dose: 100.0 mg/kg/injection, schedule: Q01DX009 (ip), vehicle: saline with Tween-80.
Setting [2] is: dose: 100.0 mg/kg/injection, schedule: Q04DX003 (ip), vehicle: saline with Tween-80.
Setting [3] is: dose: 200.0 mg/kg/injection, schedule: Q01DX009 (ip), vehicle: saline with Tween-80.
Setting [4] is: dose: 200.0 mg/kg/injection, schedule: Q04DX003 (ip), vehicle: saline with Tween-80.
Where [5] appears, read: dose: 400.0 mg/kg/injection, schedule: Q01DX009 (ip), vehicle: saline with Tween-80.
The mark [6] stands for this setting: dose: 400.0 mg/kg/injection, schedule: Q04DX003 (ip), vehicle: saline with Tween-80.
The mark [7] stands for this setting: dose: 50.0 mg/kg/injection, schedule: Q01DX009 (ip), vehicle: Klucel (hydroxypropylcellulose) (HPC).
Setting [8] is: dose: 50.0 mg/kg/injection, schedule: Q04DX003 (ip), vehicle: Klucel (hydroxypropylcellulose) (HPC).
Where [9] appears, read: dose: 100.0 mg/kg/injection, schedule: Q01DX009 (ip), vehicle: Klucel (hydroxypropylcellulose) (HPC).
Setting [10] is: dose: 100.0 mg/kg/injection, schedule: Q01DX009 (ip), vehicle: saline.
The mark [11] stands for this setting: dose: 200.0 mg/kg/injection, schedule: Q01DX009 (ip), vehicle: Klucel (hydroxypropylcellulose) (HPC).
The mark [12] stands for this setting: dose: 200.0 mg/kg/injection, schedule: Q01DX009 (ip), vehicle: saline.
[13] abbreviates: dose: 400.0 mg/kg/injection, schedule: Q01DX009 (ip), vehicle: saline.
Setting [14] is: dose: 100.0 mg/kg/injection, schedule: Q04DX003 (ip), vehicle: saline.
Where [15] appears, read: dose: 100.0 mg/kg/injection, schedule: Q01DX001 (ip), vehicle: saline.
[16] abbreviates: dose: 200.0 mg/kg/injection, schedule: Q01DX001 (ip), vehicle: saline.
[17] abbreviates: dose: 400.0 mg/kg/injection, schedule: Q01DX001 (ip), vehicle: saline.

As to `O=C(NC(=S)Nc1cccc(O)c1)c1cccc([N+](=O)[O-])c1`, the T/C is 93 % of control (dose: 100.0 mg/kg/injection, schedule: Q01DX001 (ip), vehicle: saline with Tween-80); 94 % of control and 87 % of control under setting [1]; 98 % of control and 101 % of control (dose: 100.0 mg/kg/injection, schedule: Q04DX002 (ip), vehicle: saline with Tween-80); 89 % of control under setting [2]; 97 % of control (dose: 200.0 mg/kg/injection, schedule: Q01DX001 (ip), vehicle: saline with Tween-80); 93 % of control and 105 % of control under setting [3]. Further, the T/C is 96 % of control and 109 % of control (dose: 200.0 mg/kg/injection, schedule: Q04DX002 (ip), vehicle: saline with Tween-80); 109 % of control under setting [4]; 103 % of control (dose: 400.0 mg/kg/injection, schedule: Q01DX001 (ip), vehicle: saline with Tween-80); 94 % of control under setting [5]; 101 % of control (dose: 400.0 mg/kg/injection, schedule: Q04DX002 (ip), vehicle: saline with Tween-80); 94 % of control under setting [6].

On to `CC=NC(C)(C)C`, for which the T/C runs as follows: (dose: 12.5 mg/kg/injection, schedule: Q01DX009 (ip), vehicle: saline with Tween-80) 91 % of control; (dose: 25.0 mg/kg/injection, schedule: Q01DX009 (ip), vehicle: saline with Tween-80) 94 % of control; (dose: 50.0 mg/kg/injection, schedule: Q01DX009 (ip), vehicle: saline with Tween-80) 95 % of control and 91 % of control.

Turning to `COC1OC(COS(=O)(=O)c2ccc(C)cc2)C2OC(C)(C)OC12` (stereo not drawn), the T/C is 107 % of control under setting [7]; 92 % of control under setting [8]; 95 % of control under setting [9]; 96 % of control under setting [10]; 92 % of control and 94 % of control (dose: 100.0 mg/kg/injection, schedule: Q04DX003 (ip), vehicle: Klucel (hydroxypropylcellulose) (HPC)); 104 % of control under setting [11]. For the same compound, the T/C runs as follows: under setting [12], 91 % of control; (dose: 200.0 mg/kg/injection, schedule: Q04DX003 (ip), vehicle: Klucel (hydroxypropylcellulose) (HPC)) 92 % of control and 91 % of control; (dose: 400.0 mg/kg/injection, schedule: Q01DX009 (ip), vehicle: Klucel (hydroxypropylcellulose) (HPC)) 96 % of control; under setting [13], 91 % of control; (dose: 400.0 mg/kg/injection, schedule: Q04DX003 (ip), vehicle: Klucel (hydroxypropylcellulose) (HPC)) 105 % of control and 91 % of control.

With `O=C1OC(=O)C2C3OC(C(Br)C3Br)C12` (stereo not drawn), the T/C (dose: 16.0 mg/kg/injection, schedule: Q04DX003 (ip), vehicle: saline) was 100 % of control; the T/C (dose: 37.5 mg/kg/injection, schedule: Q04DX003 (ip), vehicle: saline) is 95 % of control; the T/C (dose: 50.0 mg/kg/injection, schedule: Q04DX003 (ip), vehicle: saline) was 101 % of control; the T/C under setting [14] was 100 % of control and 90 % of control.

`C[n+]1c(O)c(C(=O)CCl)n2cc([N+](=O)[O-])ccc21`: the T/C under setting [15] was 100 % of control, the T/C under setting [16] is 92 % of control and the T/C under setting [17] was 101 % of control.

Turning to `CCOC(=O)CCN1CC(C)OC(C)C1` (stereo not drawn), the T/C runs as follows: under setting [10], 97 % of control; under setting [14], 93 % of control; under setting [12], 97 % of control; (dose: 200.0 mg/kg/injection, schedule: Q04DX003 (ip), vehicle: saline) 102 % of control; under setting [13], 103 % of control; (dose: 400.0 mg/kg/injection, schedule: Q04DX003 (ip), vehicle: saline) 111 % of control.

Consider `COC(=O)c1cn[nH]c1C(=O)OC`, for which the T/C is 100 % of control under setting [15], 100 % of control under setting [16] and 96 % of control under setting [17].

For `NC1=NC(=S)C2N=C(N=Nc3ccc(C(=O)NC(CCC(=O)O)C(=O)O)cc3)N=C2N1` (stereo not drawn), the T/C is, setting by setting: (dose: 1.56 mg/kg/injection, schedule: Q01DX009 (ip), vehicle: Klucel (hydroxypropylcellulose) (HPC)) 156 % of control and 177 % of control and 194 % of control; (dose: 3.13 mg/kg/injection, schedule: Q01DX009 (ip), vehicle: Klucel (hydroxypropylcellulose) (HPC)) 189 % of control; (dose: 25.0 mg/kg/injection, schedule: Q01DX009 (ip), vehicle: Klucel (hydroxypropylcellulose) (HPC)) 120 % of control; under setting [7], 121 % of control; under setting [8], 114 % of control; under setting [9], 88 % of control.

On to `NCCSCCN`, for which the T/C is, setting by setting: under setting [9], 104 % of control; under setting [11], 100 % of control.

In the case of `COC(=O)C(NC(=O)CNC(=O)OCc1ccccc1)C(C)O` (stereo not drawn) (Cbz-Gly-[ξT]-OMe), the T/C runs as follows: under setting [2], 98 % of control; under setting [4], 96 % of control; under setting [6], 93 % of control.

For the compound `COc1ccccc1N=C(C)CC(C)=O`, the T/C reads like this: (dose: 100.0 mg/kg/injection, schedule: Q01DX001 (ip), vehicle: Klucel (hydroxypropylcellulose) (HPC)) 100 % of control; (dose: 200.0 mg/kg/injection, schedule: Q01DX001 (ip), vehicle: Klucel (hydroxypropylcellulose) (HPC)) 91 % of control; (dose: 400.0 mg/kg/injection, schedule: Q01DX001 (ip), vehicle: Klucel (hydroxypropylcellulose) (HPC)) 99 % of control.

As for `CN(C)CCSCCN1c2ccccc2Sc2ccc(Cl)cc21`, the T/C under setting [14] was 104 % of control.

As for `O=C(OCC(O)C(O)C(O)C(COC(=O)c1ccccc1)OC(=O)c1ccccc1)c1ccccc1` (stereo not drawn), the T/C reads like this: (dose: 87.5 mg/kg/injection, schedule: Q01DX009 (ip), vehicle: carboxymethylcellulose (CMC)) 87 % of control; (dose: 100.0 mg/kg/injection, schedule: Q01DX001 (ip), vehicle: carboxymethylcellulose (CMC)) 98 % of control; (dose: 175.0 mg/kg/injection, schedule: Q01DX009 (ip), vehicle: carboxymethylcellulose (CMC)) 90 % of control; (dose: 200.0 mg/kg/injection, schedule: Q01DX001 (ip), vehicle: carboxymethylcellulose (CMC)) 96 % of control; (dose: 350.0 mg/kg/injection, schedule: Q01DX009 (ip), vehicle: carboxymethylcellulose (CMC)) 87 % of control; (dose: 400.0 mg/kg/injection, schedule: Q01DX001 (ip), vehicle: carboxymethylcellulose (CMC)) 93 % of control.

Consider `CC(=O)Nc1ccc(/C=N/NC(=O)CC2CCCCC2)cc1`, for which the T/C under setting [1] is 88 % of control, the T/C under setting [3] is 93 % of control and the T/C under setting [5] was 100 % of control.

Consider `CC(=O)OC1=CC2(OC(C)=O)CCC1C1C(=O)OC(=O)C12` (stereo not drawn), for which the T/C was 102 % of control under setting [15]; 93 % of control (dose: 100.0 mg/kg/injection, schedule: Q04DX003 (ip), vehicle: acetone); 91 % of control under setting [16]; 96 % of control (dose: 200.0 mg/kg/injection, schedule: Q04DX003 (ip), vehicle: acetone); 90 % of control under setting [17].

Take `O=C(O)c1occ(Cl)c1Cl`: the T/C was 101 % of control (dose: 25.0 mg/kg/injection, schedule: Q01DX009 (ip), vehicle: water); 105 % of control (dose: 50.0 mg/kg/injection, schedule: Q01DX009 (ip), vehicle: water); 103 % of control under setting [15]; 97 % of control under setting [9]; 91 % of control (dose: 100.0 mg/kg/injection, schedule: Q01DX009 (ip), vehicle: water); 102 % of control (dose: 100.0 mg/kg/injection, schedule: Q04DX003 (ip), vehicle: water). Moreover, the T/C is, setting by setting: under setting [16], 101 % of control; under setting [11], 95 % of control; (dose: 200.0 mg/kg/injection, schedule: Q04DX003 (ip), vehicle: water) 90 % of control.

`O=C(OCc1ccccc1CN1CCOCC1)c1ccc(Br)cc1`: the T/C reads like this: (dose: 100.0 mg/kg/injection, schedule: Q04DX002 (ip), vehicle: Klucel (hydroxypropylcellulose) (HPC)) 100 % of control; (dose: 200.0 mg/kg/injection, schedule: Q04DX002 (ip), vehicle: Klucel (hydroxypropylcellulose) (HPC)) 92 % of control; (dose: 400.0 mg/kg/injection, schedule: Q04DX002 (ip), vehicle: Klucel (hydroxypropylcellulose) (HPC)) 103 % of control.
